From patent US20240280493A1, “CELLULAR SENSORS BASED ON SURFACE-ENHANCED RAMAN SCATTERING AND APPLICATION THEREOF” (CHINA PHARMACEUTICAL UNIVERSITY, priority 2022, published 2024)

Tested on: γH2AX
Assay: Impurity genotoxicity assessment with the SERS cell-based sensor (L02 cells, Anti γH2AX@GPMT probe), fold of induction of γH2AX
Details: 24 h incubation, MMS 50 μg/ml, SA 50 μg/ml, 5-Fu 0.1 μg/ml, NDEA 500 μg/ml, FI > 1.5 judged genotoxic
Description: A human liver cell line L02 is cultured in DMEM containing 10% fetal calf serum, and put in a 37° C. incubator containing 5% CO2, and a sterile operation is performed in an entire process. When the cells grow to a logarithmic phase, L02 is inoculated into a 24-well plate containing a cell slide according to a density of 5000 cells/well, after being attached to a wall, a culture medium is replaced by a SERS probe culture medium with a concentration being 0.05 nM, and incubation is performed for 4 h.
The cell-based sensor culture medium is replaced by a culture medium containing impurities of different concentrations, continuous incubation is performed for 24 h, then the slide is taken out and put in a confocal inverted microscope bright and dark field imaging Raman spectrometer to be tested, the Raman signals of the test group and the control group are compared, and the impurity genotoxicity is assessed.
Methyl methanesulfonate (MMS), a salicylic acid (SA), 5-fluorouracil (5-Fu) and N-nitrosodiethylamine (NDEA) are selected respectively as genotoxic impurities of different structure types to be tested. […]

CCN(CC)N=O [NDEA, N-nitrosodiethylamine]
FI value (fold of induction, concentration ratio of effector molecules of test group and control group): 3.59

O=C(O)c1ccccc1O [SA, salicylic acid]
FI value (fold of induction, concentration ratio of effector molecules of test group and control group): 1.02
